Measurements taken from paper PMC12011790, “Synergistic chemo-immunotherapy for osteosarcoma via a pH-responsive multi-component nanoparticle system” (Frontiers in Pharmacology, 2025).

Key:
[1] = test system: LM8 murine osteosarcoma cells; assay: CCK-8 cell viability; assay type: cell-based; conditions: 48 h, pH not stated, mean ± SD, n = 3
Experimental: The LM8 murine osteosarcoma cell line, derived from C3H/He mice, was purchased from HyCyte™ (Suzhou, China). LM8 cells were maintained in Dulbecco’s modified Eagle’s medium (DMEM, Gibco, NY, United States) supplemented with 10% fetal bovine serum (FBS, Gibco). Cells were cultured at 37°C in an incubator under 5% CO2.
LM-8 cells were seeded at a density of 1 × 10^6 cells/mL in a 96-well plate. After 24 h incubation, the culture medium was replaced with 100 μL of medium containing serial dilutions of different treatment samples. After 48 h incubation, 10 μL of the CCK-8 reagent (Dojindo, Kyushu, Japan) was added into each well and incubated for further 2 h at 37°C. The absorbance of each sample was measured at 450 nm using a multifunction microplate reader (Biotek, VT, United States).

LM8 cells [2] = assay: Calreticulin (CRT) surface exposure, flow cytometry; assay type: cell-based, murine; conditions: 10 μM DOX or equivalent, 24 h, mean ± SEM by Figure 3 legend
Experimental: (§1) The immunogenic cell death (ICD) biomarkers, including calreticulin (CRT), high-mobility group box 1 (HMGB1), and adenosine triphosphate (ATP), were analyzed. LM-8 cells were seeded in 24-well plates at a density of 1 × 10^5 cells per well, and the cells were allowed to grow to an appropriate confluence.
After treatment, the cells were digested, collected, and washed twice with cold PBS. To determine the surface expression of CRT, the cells were blocked with CD16/32 antibody for 10 min, incubated with Alexa 488-anti-CRT antibody (EPR3924, 1:500 v/v, Abcam) for 15 min at 4°C, washed once with PBS, resuspended with PBS, and detected by flow cytometry.

LM8 cells [3] = assay: Extracellular ATP release, bioluminescence kit; assay type: cell-based, murine; conditions: LM8 culture supernatant, 10 μM DOX or equivalent, 24 h, mean ± SEM by Figure 3 legend
Experimental: as §1
On the other hand, additional sets of cells received identical treatments were employed to determine the released HMGB1 and ATP. Briefly, culture supernatant was collected and centrifuged to remove cell debris. Subsequently, the extracellular HMGB1 was quantified using an enzyme-linked immunosorbent assay (ELISA) kits (R&D systems, China), whereas the supernatant ATP was quantified using a bioluminescence kit (No. S0026, Beyotime, China) and measured by a multifunction microplate reader.

LM8 osteosarcoma = assay: Antitumor efficacy in LM8-bearing osteosarcoma model; assay type: in vivo; conditions: LM8-bearing C3H/HeJ mice, tail vein, DOX equivalent 10 mg/kg every other day, 7 doses, n = 5
Experimental: To investigate the in vivo antitumor effects, male C3H/HeJ mice (8–10 weeks old) were purchased from GemPharmatech (Nanjing, China). All animal experiments were conducted with the relevant institutional guidelines of Jiangsu University, and were approved by the Institutional Animal Care And Use Committees of Jiangsu University (UJS-IACUC-2024080202).
[…] LM8-bearing OS model was established by injected subcutaneously 1 × 10^7 LM8 cells into the backs of mice. Tumor growth was allowed to proceed for approximately 7 days prior to treatment until the tumors reached a measurable size. Tumor size was monitored using a caliper, with tumor volume calculated according to the formula: (length × width^2)/2.
(§2) Each group received the corresponding treatment via tail vein injection, with a DOX equivalent dose of 10 mg/kg administered every other day for a total of 7 doses. Tumor volume and mouse body weight were recorded every other day during the treatment. On day 14, the mice were euthanized under anesthesia, and the tumors were excised and weighed for further analysis. The tumor was further stained with hematoxylin and eosin (H&E) after mice sacrificed.

[4] = Body weight during treatment (systemic toxicity); assay type: in vivo, C3H/HeJ mice; conditions: LM8-bearing mice; tail vein, DOX equivalent 10 mg/kg every other day, 7 doses
Experimental: as §2

[5] = test system: immune cell populations in the tumor, and tumor-draining lymph nodes; assay: Flow cytometric immune cell profiling of tumor and tumor-draining lymph nodes; assay type: in vivo, C3H/HeJ mice; conditions: post-treatment, flow cytometry
From the text: Flow cytometry was applied to characterize the change in immune cell populations in the tumor, and tumor-draining lymph nodes (TDLNs). Excised tumors were harvested, homogenized and consecutively strained through 70-μm filters to obtain single cell suspensions, while the lymph nodes were manually dissociated through a 40-μm filter to obtain a single cell suspension. Cells were stained with fluorescent antibodies to identify immune cell pollutions.
Single-cell suspensions of TDLNs were stained with CD11c (clone N418; Biolegend), CD80 (clone 16-10A1; Biolegend), CD86 (clone GL1; Biolegend) for the analysis of mature DCs.
Single-cell suspensions of tumor tissues were stained with CD3 (clone 145-2C11; BD), CD4 (clone RM4-5; BD), CD8 (clone 53–6.7; Biolegend), CD62L (clone MEL-14; Biolegend), or CD44 (clone 1M7; Biolegend) antibodies for flow cytometry analysis. For intracellular cytokine and marker staining, after extracellular staining, cells were fixed and permeabilized with BD Cytofix/Cytoperm kit (BD Biosciences) and incubated with fluorescently conjugated antibodies against IFNγ (clone XMG1.2; Biolegend) or granzyme B (clone GB11; Biolegend) antibodies. […] Samples were run on a Beckman Coulter Gallios™ flow cytometer and analyzed using FlowJo software.

[6] = cumulative doses exceeding 550 mg/m^2; ref Alberts and Garcia, 1997; Treat et al., 1990; cited from earlier work
From the text: A major challenge in OS treatment lies in the toxicity associated with conventional chemotherapeutic agents. […] Although reducing DOX dosage can alleviate the cardiotoxicity, this reduction risks compromising the therapeutic efficacy, particularly its ability to induce immunogenic cell ...

[7] = Stability (retention) of the PD-1/PD-L1 peptide in PBS and FBS-containing PBS, HPLC; assay type: in vitro ADME; conditions: 48 h; for peptide content remaining: peptide conjugated in co-loaded nanoparticles, FBS-containing PBS (50% FBS), mean ± SD, n = 3, SD
From the text: […] Peptide content was quantified using high-performance liquid chromatography (HPLC). This analysis aimed to determine peptide degradation in PBS and FBS-containing media, considering the potential influence of protease activity present in serum.

Row | peptide remaining intact ([7]; peptide conjugated as DSPE-PEG-peptide in co-loaded nanoparticles, PBS, 37°C, n = 3) | peptide content remaining ([7]; 25°C) | peptide content remaining ([7]; 37°C) | Compound | IC50 [1] [µM] | CRT exposure (% of cells) (LM8 cells [2]) | extracellular ATP level (LM8 cells [3]) [nM] | tumor growth (tumor volume) (LM8 osteosarcoma; 14 days) | tumor mass at end of study (LM8 osteosarcoma; day 14) | body weight change [4] | infiltrated CTLs (CD3+CD8+) in tumor tissue [5] | long-term survivors affected by cardiotoxicity [6]
1 |  |  |  | COc1cccc2c1C(=O)c1c(O)c3c(c(O)c1C2=O)C[C@@](O)(C(=O)CO)C[C@@H]3O[C@H]1C[C@H](N)[C@H](O)[C@H](C)O1.Cl [free DOX, Doxorubicin hydrochloride] | 13.3 ± 1.24 | 73.04% ± 6.35% | 266.05 ± 42.73 | moderate reduction in tumor growth | moderate reductions in tumor mass | significant weight loss | moderate CTLs infiltration | approximately 30%
2 | over 90% | 78.57% ± 0.81% | 72.32% ± 1.26% | CGGGGSHFSASYDKYAEKF [PD-1/PD-L1 targeting peptide] |  |  |  |  |  |  |  | 
